Experiments:
[1] = molecular target: T1, SHP-1 (Mus musculus, UniProt P29351); test: In vitro PTPase assay, GST/SHP-1; format: biochemical; settings: for inhibitory activity against SHP-1: 3-4 μg/ml or 10-100 μg/ml
T1 construct: made in house
Description: In vitro PTPase activities were measured using the commercial protein tyrosine phosphatase assay kit (Upstate Biotechnology, Inc. (“UBI”)) following established procedure known to one of skill in the art. […] Briefly, 0.01 µg of GST/PTPase fusion proteins was incubated in 50 µl of Tris buffer (10 mM Tris, pH 7.4) containing different concentrations of inhibitors or chemicals (0-1,000 µg/ml) at 22° […] 100 µl of Malachite Green solution was added and incubated for 5 minutes, and the absorbance at 660 nm was measured after 5 minutes.
To assess the reversibility of inhibition of SHP-1 by PTPase inhibitors, GST/SHP-1 fusion protein bound on glutathione beads were pre-incubated in cold Tris buffer or Tris buffer containing the PTPase inhibitors at 4° C. for 30 minutes. The beads were then either subjected to in vitro PTPase assays or washed 3 times in Tris buffer then subjected to in vitro PTPase assays.
Briefly, individual PTPases (0.1 µg/reaction) in 50 µL of PTPase buffer (50 mM Tris, pH 7.4) were incubated at 22° C. for 10 minutes or as indicated in the absence or presence of inhibitory compounds. Substrates (0.2 mM phosphotyrosine peptide) were then added and allowed to react at 22° C. for 18 hrs. PTPase activity of individual reactions was measured by adding 100 µL of malachite green solution (UBI) and then quantifying the amounts of free phosphate cleaved by the PTPase from the peptide substrate by spectrometry (OD660 nm). […] Relative PTPase activities were calculated based on the formula: (PTPase activity in the presence of an inhibitory compound/PTPase activity in the absence of the compound)× 100%. To assess the reversibility of PTPase inhibition, GST fusion proteins of the PTPases bound on glutathione beads (Pharmacia) were pre-incubated with cold Tris buffer (50 mM Tris, pH 7.0) or Tris buffer containing the inhibitor at 4° C. for 30 minutes. The beads were then washed three times in cold Tris buffer or not washed prior to subjecting to in vitro PTPase assays.

[2] = molecular target: T2, PRL-3 (Homo sapiens, UniProt O75365); test: In vitro PTPase assay, recombinant PRL-3; format: biochemical; settings: for PRL-3 PTPase activity remaining: 0.1-100 μg/ml
T2 construct: made in house; host or cells: E. coli DH5a
T2 sequence (O75365 whole entry): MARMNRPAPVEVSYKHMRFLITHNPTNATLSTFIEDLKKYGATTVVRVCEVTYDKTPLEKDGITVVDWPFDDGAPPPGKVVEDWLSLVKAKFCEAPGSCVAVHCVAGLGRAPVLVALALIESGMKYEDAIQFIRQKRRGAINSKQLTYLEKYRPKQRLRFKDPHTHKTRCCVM
From the text: Sodium stibogluconate, suramin, sodium orthovanadate and GST fusion protein of SHP-1 have been described previously (Pathak et al., J. Imumol. 167, 3391 (2001)). Meglumine antimonate was obtained from Aventis. cDNAs of human PRL-1, PRL-2 and PRL-3 coding region were derived by RT-PCR from H9 cells (Safai, et al., Lancet 1, 1438 (1984)) and inserted in frame into the pGEX vector. cDNA of PRL-1R86 was generated by recombinant DNA technique using PRL-1 cDNA as template following established procedures (Jiao, et al., Mol. Cell. Biol. 16, 6985 (1996)). GST fusion proteins of the PRL phosphatases were prepared from DH5a bacteria transformed with the pGEX fusion protein constructs as described previously (Yi, et al., Mol. Cell. Biol. 12, 836 (1992)). cDNAs encoding the PRLs tagged at the N-termini with the Flag epitope (Castrucci, et al., J. Virol. 66, 4647 (1992)) were generated via recombinant DNA technique, sequenced to confirm their identities and cloned into the pBabepuro vector (Yang, et al., Blood 91, 3746 (1998)). Anti-Flag monoclonal antibody (M2, Sigma) was purchased from a commercial source. A synthetic phosphotyrosine peptide (Arg-Arg-Leu-Ile-Glu-Asp-Ala-Gle-Tyr-Al- -a-Ala-Arg-Gly (SEQ ID NO: 3), wherein the tyrosine is phosphorylated; UBI) and DiFMUP (6,8-difluoro-4-methylumbelliferyl phosphate, Molecular Probes) were purchased as substrates for PTPase assays.
In vitro PTPase assays were used to determine the effects of compounds on recombinant PTPases, following established procedures using a synthetic phosphotyrosine peptide or DiFMUP as the substrate (Pathak et al., J. Imumol. 167, 3391 (2001)). Briefly, individual PTPases (0.1 µg/reaction) in 50 µL of PTPase buffer (50 mM Tris, pH 7.4) were incubated at 22° C. for 10 minutes or as indicated in the absence or presence of inhibitory compounds. Substrates (0.2 mM phosphotyrosine peptide) were then added and allowed to react at 22° C. for 18 hrs. PTPase activity of individual reactions was measured by adding 100 µL of malachite green solution (UBI) and then quantifying the amounts of free phosphate cleaved by the PTPase from the peptide substrate by spectrometry (OD660 nm). PTPase assays using DiFMUP as a substrate were conducted following a previously described procedure (Matter, et al., Biochem. Biophys. Res. Comm. 283, 1061 (2001)). Relative PTPase activities were calculated based on the formula: (PTPase activity in the presence of an inhibitory compound/PTPase activity in the absence of the compound)× 100%. To assess the reversibility of PTPase inhibition, GST fusion proteins of the PTPases bound on glutathione beads (Pharmacia) were pre-incubated with cold Tris buffer (50 mM Tris, pH 7.0) or Tris buffer containing the inhibitor at 4° C. for 30 minutes. The beads were then washed three times in cold Tris buffer or not washed prior to subjecting to in vitro PTPase assays.

| inhibitory activity against SHP-1 [1] | PRL-3 PTPase activity remaining [2] | Structure (SMILES) | activity against recombinant SHP-1 ([1]; HPLC fractions, parental mixture at Sb 10 μg/ml) | dephosphorylation of pNPP by these PTPases ([1]; pNPP substrate, SHP-1, SHP-2 and PTP1B) | inhibition of GST/SHP-1 after washing (reversibility) ([1]; pre-incubated with inhibitor, beads washed) | inhibition of PRL-3 after washing [2] | inactivation of PRL-3 ([2]; 10 μg/ml, pre-incubation 30 or 60 minutes) |
| --- | --- | --- | --- | --- | --- | --- | --- |
| – | – | O.O.O.O.O.O.O.O.O.O=C([O-])[C@@H]1[O][Sb]2([O-])([O][Sb]34([OH])[O][C@H]([C@H](O)CO)[C@H]([O]3)[C@H](C(=O)[O-])[O]4)[O][C@H]([C@H](O)CO)[C@@H]1[O]2.[Na+].[Na+].[Na+] [sodium stibogluconate] | inactivated SHP-1 | similarly inhibited | not affected by washing | not relieved by a washing process | nearly complete inactivation |
| no obvious inhibitory activity | 25-40% | CC(=O)N1CCN(c2ccc(OCC3COC(Cn4ccnc4)(c4ccc(Cl)cc4Cl)O3)cc2)CC1 (stereo not drawn) [ketoconazole] | – | – | – | – | – |
| no obvious inhibitory activity | 20-30% | N=C(N)c1ccc(OCCCCCOc2ccc(C(=N)N)cc2)cc1 [pentamidine] | – | – | – | – | – |

— patent US20080089860A1, “Therapeutic compositions and methods useful in treating cancer” (priority 2006, published 2008)
